Experimental data taken from ChEMBL document CHEMBL1201862, “PubChem BioAssay data set” (2004).
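Five concentrations, 48 hours, 96-well plates. GI50 = concentration required for 50% inhibition of growth.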 Active and inactive are the calls of the source. No stated cut-off is given here; in the data, active = GI50 up to about 1.1 µM and inactive = higher.

What was measured:
Experiment in all cases: inhibition of tumour cell growth, NCI panel, 48 h
[1] = tested on: SR
[2] = tested on: HT-29
[3] = tested on: IGROV-1
[4] = tested on: UO-31
[5] = tested on: K562
[6] = tested on: SN12C
[7] = tested on: A549
[8] = tested on: SK-MEL-28
[9] = tested on: HOP-62
[10] = tested on: SNB-78
[11] = tested on: KM-20L2
[12] = tested on: OVCAR-5
[13] = tested on: HCT-15
[14] = tested on: M19-MEL
[15] = tested on: DMS-273
[16] = tested on: SNB-75
[17] = tested on: NCI-H522
[18] = tested on: XF498
[19] = tested on: HCC 2998
[20] = tested on: SK-MEL-5
[21] = tested on: CCRF-CEM
[22] = tested on: EKVX
[23] = tested on: RPMI-8226
[24] = tested on: OVCAR-4
[25] = tested on: SNB-19
[26] = tested on: 786-0
[27] = tested on: DMS-114
[28] = tested on: NCI-H460
[29] = tested on: HCT-116
[30] = tested on: OVCAR-8
[31] = tested on: MOLT-4
[32] = tested on: KM12
[33] = tested on: DLD-1
[34] = tested on: UACC-62
[35] = tested on: SF-268
[36] = tested on: SK-MEL-2
[37] = tested on: LOX IMVI
[38] = tested on: OVCAR-3
[39] = tested on: UACC-257
[40] = tested on: U-251
[41] = tested on: ACHN
[42] = tested on: Malme-3M
[43] = tested on: CAKI-1
[44] = tested on: M14
[45] = tested on: NCI-H23
[46] = tested on: LXFL 529
[47] = tested on: NCI-H226
[48] = tested on: SF-539
[49] = tested on: SW-620
[50] = tested on: SF-295
[51] = tested on: COLO 205
[52] = tested on: SK-OV-3

N#Cc1c(C[n+]2ccccc2)c2ccccc2oc1=O was tested. Which GI50 [1] did it give?
The GI50 was > 100 µM (inactive).

And the GI50 [2]?
The GI50 was > 100 µM (inactive).

What about the GI50 [3] of the same compound?
Its GI50 is > 100 µM (inactive).

And the GI50 [4]?
Its GI50 is > 100 µM (inactive).

What about the GI50 [5] of the same compound?
The GI50 was > 100 µM (inactive).

What about the GI50 [6] of the same compound?
The GI50 was > 100 µM (inactive).

What about the GI50 [7] of the same compound?
The GI50 was > 100 µM (inactive).

And the GI50 [8]?
The GI50 was > 100 µM (inactive).

And the GI50 [9]?
Its GI50 is > 100 µM (inactive).

And the GI50 [10]?
The GI50 was > 100 µM (inactive).

What about the GI50 [11] of the same compound?
Its GI50 is > 100 µM (inactive).

What about the GI50 [12] of the same compound?
Its GI50 is > 100 µM (inactive).

And the GI50 [13]?
Its GI50 is greater than 100 µM.

And the GI50 [14]?
The GI50 was > 100 µM (inactive).

What about the GI50 [15] of the same compound?
Its GI50 is > 100 µM (inactive).

And the GI50 [16]?
Its GI50 is > 100 µM (inactive).

And the GI50 [17]?
The GI50 was > 100 µM (inactive).

And the GI50 [18]?
Its GI50 is > 100 µM (inactive).

What about the GI50 [19] of the same compound?
Its GI50 is > 100 µM (inactive).

What about the GI50 [20] of the same compound?
Its GI50 is > 100 µM (inactive).

What about the GI50 [21] of the same compound?
Its GI50 is > 100 µM (inactive).

What about the GI50 [22] of the same compound?
Its GI50 is > 100 µM (inactive).

What about the GI50 [23] of the same compound?
The GI50 was > 100 µM (inactive).

What about the GI50 [24] of the same compound?
Its GI50 is 22.7 µM (inactive).

And the GI50 [25]?
Its GI50 is > 100 µM (inactive).

And the GI50 [26]?
The GI50 was > 100 µM (inactive).

And the GI50 [27]?
Its GI50 is > 100 µM (inactive).

And the GI50 [28]?
The GI50 was > 100 µM (inactive).

And the GI50 [29]?
Its GI50 is > 100 µM (inactive).

What about the GI50 [30] of the same compound?
The GI50 was > 100 µM (inactive).

What about the GI50 [31] of the same compound?
The GI50 was > 100 µM (inactive).

What about the GI50 [32] of the same compound?
The GI50 was > 100 µM (inactive).

And the GI50 [33]?
The GI50 was > 100 µM (inactive).

And the GI50 [34]?
Its GI50 is > 100 µM (inactive).

And the GI50 [35]?
The GI50 was > 100 µM (inactive).

What about the GI50 [36] of the same compound?
The GI50 was > 100 µM (inactive).

What about the GI50 [37] of the same compound?
The GI50 was > 100 µM (inactive).

What about the GI50 [38] of the same compound?
The GI50 was > 100 µM (inactive).

What about the GI50 [39] of the same compound?
Its GI50 is > 100 µM (inactive).

What about the GI50 [40] of the same compound?
The GI50 was > 100 µM (inactive).

What about the GI50 [41] of the same compound?
Its GI50 is > 100 µM (inactive).

What about the GI50 [42] of the same compound?
The GI50 was > 100 µM (inactive).

What about the GI50 [43] of the same compound?
The GI50 was > 100 µM (inactive).

What about the GI50 [44] of the same compound?
Its GI50 is > 100 µM (inactive).

And the GI50 [45]?
The GI50 was > 100 µM (inactive).

And the GI50 [46]?
The GI50 was > 100 µM (inactive).

And the GI50 [47]?
The GI50 was > 100 µM (inactive).

And the GI50 [48]?
Its GI50 is > 100 µM (inactive).

And the GI50 [49]?
The GI50 was > 100 µM (inactive).

And the GI50 [50]?
The GI50 was > 100 µM (inactive).

And the GI50 [51]?
The GI50 was > 100 µM (inactive).

What about the GI50 [52] of the same compound?
Its GI50 is > 100 µM (inactive).
